Test results taken from US20110039770A1, “INHIBITORS OF PROTEIN KINASE C ISOFORMS AND USES THEREOF” (PHARMAGAP INC., priority 2005, published 2011).
Where a SMILES comes first, the peptide text is derived from it. [ ]: non-standard residue; d: D form.

What was measured:
PKC-ι = biological target: T1, PKC-ι (Homo sapiens, UniProt P41743); assay: Competitive binding assay using cell extracts (Western blot); set-up: key: —: no detectable affinity; Low to very low affinity at 10X or 20X or both PRE concentrations in at least one cell line in the cell extract assay; Low affinity in purified isoform assay.; Moderate affinity at 10X or 20X or both PRE concentrations in at least one cell line in the cell extract assay.; High affinity at 10X or 20X or both PRE concentrations in at least one cell line in the cell extract assay; High affinity in purified isoform assay; settings: Cell extract; PRE 10X or 20X antibody concentration
T1 construct: cytoplasmic extracts from different cell lines expressing appropriate PKC isoforms; endogenous in cells; host or cells: H661, CCD16Lu, LnCAP, MDAMB231, Du145, LS180
T1 sequence (P41743 1-596): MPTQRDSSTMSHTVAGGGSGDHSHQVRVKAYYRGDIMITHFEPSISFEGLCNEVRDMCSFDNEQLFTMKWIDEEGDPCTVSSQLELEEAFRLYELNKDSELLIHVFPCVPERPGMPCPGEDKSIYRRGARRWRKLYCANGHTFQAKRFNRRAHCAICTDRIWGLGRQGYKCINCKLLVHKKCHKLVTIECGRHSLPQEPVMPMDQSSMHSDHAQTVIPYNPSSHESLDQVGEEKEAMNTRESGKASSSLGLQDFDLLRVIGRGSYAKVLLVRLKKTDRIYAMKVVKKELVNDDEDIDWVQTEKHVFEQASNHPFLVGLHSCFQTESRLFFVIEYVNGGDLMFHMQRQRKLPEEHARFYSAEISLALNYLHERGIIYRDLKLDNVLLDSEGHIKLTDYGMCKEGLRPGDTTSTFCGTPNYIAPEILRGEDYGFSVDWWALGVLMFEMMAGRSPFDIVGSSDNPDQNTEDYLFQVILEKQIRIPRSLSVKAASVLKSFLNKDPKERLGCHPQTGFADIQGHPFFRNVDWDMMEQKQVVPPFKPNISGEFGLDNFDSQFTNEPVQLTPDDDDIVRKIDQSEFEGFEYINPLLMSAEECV
Description: (§1) Binding efficiency and specificity of the peptides PRE 2, 3, 4, 5, 6, 7, 8, 9, 10, 11, 12 and 13 (see Table 4) was also tested using cytoplasmic extracts from different cell lines expressing appropriate PKC isoforms as described for Example 1. Briefly, the protein cytoplasmic extracts were separated by electrophoresis and transferred onto nitrocellulose membranes by standard Western blotting procedures. The bands on the Western blots were detected with matching primary antibodies and alkaline phosphatase conjugated secondary antibody. The bands were then scanned and the relative density measurements obtained.
(§2) This procedure to assess the binding characteristics of the PREs is based on competition binding of the PRE with the primary anti-isoform PKC specific antibodies. The lower the measured band density, the greater the binding of the PRE to the PKC isoform. The PREs were added at 10 and 20 times (10×, 20×) the primary antibody concentration, according to classical competition between antigenic peptide and primary antibody. The following cell lines (obtained from the ATCC) were used: H661—NCI human lung carcinoma NSCLC; MDAMB231—human highly invasive breast cancer cell line from pleural effusion; LS180—human colon adenocarcinoma; LnCAP—human prostate adenocarcinoma; CCD16Lu—human lung fibroblasts; Du145—human prostate carcinoma brain metastasis, and T24—human bladder carcinoma.
(§3) In these cases, the 20× band density figures relative to control and 10× values were reliable.

PKC-α [1] = biological target: T2, PKC-α (Homo sapiens, UniProt P17252); assay: Competition of PRE with PKC-α antibody binding, Protocol B (peptide added to cell extract before electrophoresis), IMR-32; set-up: endogenous PKC-α in (A) untreated human neuroblastoma (IMR-32) cells; endogenous in cells; host or cells: IMR-32 human neuroblastoma cells
Description: Peptides PRE 3 and PRE 4 (see Table 4) were tested for their ability to interfere with the binding of isoform-specific polyclonal antibodies (Santa Cruz Biotechnology, Inc.) to PKC-α, PKC-βI or PKC-βII using the general protocol described in Example 3.

PKC-α [2] = biological target: T2, PKC-α; assay: Subcellular localisation of PKC-α in IMR-32 cells; assay type: cell-based; set-up: endogenous PKC-α in (A) untreated human neuroblastoma (IMR-32) cells; endogenous in cells; host or cells: IMR-32 human neuroblastoma cells; settings: 10 mg/ml, pinocytic endocytosis
Description: Peptides PRE 3 or PRE 4 (10 mg/ml) were introduced into human neuroblastoma cells (IMR-32) by pinocytic endocytosis. The cells were fixed and stained with rabbit PKC-α primary antibody and anti-rabbit Alexa-488 or Alexa-800 secondary antibody.

PKC-ζ = biological target: T3, PKC-ζ (Homo sapiens, UniProt Q05513); assay: Competitive binding assay using cell extracts (Western blot); set-up: cytoplasmic extracts from different cell lines expressing appropriate PKC isoforms; endogenous in cells; host or cells: H661, CCD16Lu, LnCAP, MDAMB231, Du145; key: —: no detectable affinity; Low to very low affinity at 10X or 20X or both PRE concentrations in at least one cell line in the cell extract assay; Low affinity in purified isoform assay.; Moderate affinity at 10X or 20X or both PRE concentrations in at least one cell line in the cell extract assay.; High affinity at 10X or 20X or both PRE concentrations in at least one cell line in the cell extract assay; High affinity in purified isoform assay; settings: Cell extract; PRE 10X or 20X antibody concentration
T3 sequence (Q05513 1-592): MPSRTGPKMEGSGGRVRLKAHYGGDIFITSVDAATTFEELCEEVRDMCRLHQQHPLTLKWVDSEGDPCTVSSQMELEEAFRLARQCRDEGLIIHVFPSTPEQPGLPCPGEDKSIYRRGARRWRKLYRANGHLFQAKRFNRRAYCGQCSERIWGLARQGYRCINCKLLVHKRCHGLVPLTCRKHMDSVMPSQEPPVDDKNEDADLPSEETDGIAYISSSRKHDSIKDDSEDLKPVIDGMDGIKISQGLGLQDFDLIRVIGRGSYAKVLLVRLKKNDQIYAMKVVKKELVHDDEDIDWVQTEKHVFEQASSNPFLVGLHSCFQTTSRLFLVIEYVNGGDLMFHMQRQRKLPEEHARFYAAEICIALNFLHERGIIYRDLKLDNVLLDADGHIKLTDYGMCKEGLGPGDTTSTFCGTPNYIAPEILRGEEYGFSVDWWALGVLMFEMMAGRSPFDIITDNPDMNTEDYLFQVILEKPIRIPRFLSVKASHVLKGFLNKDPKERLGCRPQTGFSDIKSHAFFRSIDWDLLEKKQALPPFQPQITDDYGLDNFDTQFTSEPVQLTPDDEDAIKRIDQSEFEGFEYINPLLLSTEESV
Description: as §1, §2, §3

[3] = 100 μg, Example 5 (control 302.5)
[4] = 200 μg, Example 5 (control 302.5)
[5] = 300 μg, Example 5 (control 302.5)

| Compound | Affinity for PKC isoform ι (PKC-ι) | Affinity for PKC isoform ζ (PKC-ζ) | further results |
| --- | --- | --- | --- |
| CC[C@H](C)[C@H](NC(=O)[C@H](CO)NC(=O)[C@@H](NC(=O)CNC(=O)[C@@H](NC(=O)[C@H](CC(C)C)NC(=O)[C@H](CC(N)=O)NC(=O)[C@H](CCC(N)=O)NC(=O)[C@H](C)NC(=O)[C@H](CC(=O)O)NC(=O)CNC(=O)CNC(=O)[C@H](CCCCN)NC(=O)[C@@H](NC(=O)[C@H](CCC(=O)O)NC(=O)[C@H](CCC(N)=O)NC(=O)[C@@H](NC(=O)CNC(=O)[C@H](CCCCN)NC(=O)[C@H](C)NC(C)=O)[C@@H](C)CC)C(C)C)[C@@H](C)CC)[C@@H](C)CC)C(N)=O [PRE 3] (Ac-AKGIQEVKGGDAQNLIGISI-NH2) | L | — | Band Intensity (PKC-α [1]; 100 μg, Example 3 (control 0.759)): 0.0; Band Intensity (PKC-α [1]; [3]): 0.0; Band Intensity (PKC-α [1]; 200 μg, Example 3 (control 0.759)): 0.0; Band Intensity (PKC-α [1]; [4]): 0.0; Band Intensity (PKC-α [1]; 300 μg, Example 3 (control 0.759)): 0.0; Band Intensity (PKC-α [1]; [5]): 0.0; effect on subcellular localisation of PKC-α (PKC-α [2]): does not alter the subcellular localisation of PKC-α |
| CC[C@H](C)[C@H](NC(=O)[C@H](CO)NC(=O)[C@@H](NC(=O)CNC(=O)[C@@H](NC(=O)[C@H](CC(C)C)NC(=O)[C@H](CC(N)=O)NC(=O)[C@H](CCC(N)=O)NC(=O)[C@H](C)NC(=O)[C@H](CC(=O)O)NC(=O)[C@H](CCCCN)NC(C)=O)[C@@H](C)CC)[C@@H](C)CC)C(N)=O [PRE 4, Ac-KDAQNLIGISI-NH2] (Ac-KDAQNLIGISI-NH2) | M/L | — | Band Intensity (PKC-α [1]; [3]): 32.2; Band Intensity (PKC-α [1]; [4]): 1.5; Band Intensity (PKC-α [1]; [5]): 0.0; effect on subcellular localisation of PKC-α (PKC-α [2]): prevented translocation of PKC-α to the membrane |
| CC[C@H](C)[C@H](NC(=O)[C@H](CO)NC(=O)[C@@H](NC(=O)CNC(=O)[C@@H](NC(=O)[C@H](CC(C)C)NC(=O)[C@H](CC(N)=O)NC(=O)[C@H](CCC(N)=O)NC(=O)[C@H](C)NC(=O)[C@H](CC(=O)O)NC(=O)[C@H](CCCCN)NC(=O)CNC(=O)CNC(=O)[C@H](CCCCN)NC(=O)[C@@H](NC(=O)[C@H](CCC(=O)O)NC(=O)[C@H](CCC(N)=O)NC(=O)[C@@H](NC(=O)CNC(=O)[C@H](CCCCN)NC(=O)[C@H](C)NC(C)=O)[C@@H](C)CC)C(C)C)[C@@H](C)CC)[C@@H](C)CC)C(N)=O [PRE 5] (Ac-AKGIQEVKGGKDAQNLIGISI-NH2) |  | L/H |  |
| Ac-KDANQLIGISI-NH2 [PRE 6] | — | — |  |
| RRKKGGKDFVVKR [PRE 1] | — | L |  |

The next lines start with results.

| Affinity for PKC isoform ι (PKC-ι) | Affinity for PKC isoform ζ (PKC-ζ) | Compound | further results |
| --- | --- | --- | --- |
|  | M/L | Ac-ISIGILNQADK-NH2 [PRE 10] |  |
| — | — | Ac-ISIGILQNADK-NH2 (not fully specified; printed as Ac-ISIGILQNADK-NH2) [PRE 7] |  |
| — | M/H | Ac-KDAQNLI-NH2 [PRE 12] |  |
| — | — | Ac-RDAQNLI-NH2 [PRE 13] |  |
|  | — | Ac-RDAQNLIGISI-NH2 [PRE 11] |  |
|  | M/L | Ac-isigilqnadk-NH2 (Ac-[dI][dS][dI]G[dI][dL][dQ][dN][dA][dD][dK]-NH2; SMILES CC[C@@H](C)[C@@H](NC(C)=O)C(=O)N[C@H](CO)C(=O)N[C@@H](C(=O)NCC(=O)N[C@@H](C(=O)N[C@H](CC(C)C)C(=O)N[C@H](CCC(N)=O)C(=O)N[C@H](CC(N)=O)C(=O)N[C@H](C)C(=O)N[C@H](CC(=O)O)C(=O)N[C@H](CCCCN)C(N)=O)[C@H](C)CC)[C@H](C)CC) [PRE 9] |  |
